Measurements as given in the supplement of paper PMC13380429.

Tests used:
Settings in all cases: 72 h
Caco-2 [1] = assay: cell viability relative to DMSO; higher = less toxic
Calu-3 [2] = assay: as above
HepG2 [3] = assay: as above
U2OS [4] = assay: as above
Vero E6 [5] = assay: as above
Caco-2 [6] = assay: relative viability EC50 (midpoint between 100% and the lowest measured viability); higher = less toxic
Calu-3 [7] = assay: as above
HepG2 [8] = assay: as above
U2OS [9] = assay: as above
Vero E6 [10] = assay: as above
Caco-2 [11] = assay: drug sensitivity score (DSS) for viability; higher = more toxic; extreme values may be limits of the assay
Calu-3 [12] = assay: as above
HepG2 [13] = assay: as above
U2OS [14] = assay: as above
Vero E6 [15] = assay: as above

Row | SMILES | cell viability (Caco-2 [1]; 1 nM) | cell viability (Caco-2 [1]; 10 nM) | cell viability (Caco-2 [1]; 100 nM) | cell viability (Caco-2 [1]; 1000 nM) | cell viability (Caco-2 [1]; 10000 nM) | cell viability (Calu-3 [2]; 1 nM) | cell viability (Calu-3 [2]; 10 nM) | cell viability (Calu-3 [2]; 100 nM) | cell viability (Calu-3 [2]; 1000 nM) | cell viability (Calu-3 [2]; 10000 nM) | cell viability (HepG2 [3]; 1 nM) | cell viability (HepG2 [3]; 10 nM) | cell viability (HepG2 [3]; 100 nM) | cell viability (HepG2 [3]; 1000 nM) | cell viability (HepG2 [3]; 10000 nM) | cell viability (U2OS [4]; 1 nM) | cell viability (U2OS [4]; 10 nM) | cell viability (U2OS [4]; 100 nM) | cell viability (U2OS [4]; 1000 nM) | cell viability (U2OS [4]; 10000 nM) | cell viability (Vero E6 [5]; 1 nM) | cell viability (Vero E6 [5]; 10 nM) | cell viability (Vero E6 [5]; 100 nM) | cell viability (Vero E6 [5]; 1000 nM) | cell viability (Vero E6 [5]; 10000 nM) | relative viability EC50 (Caco-2 [6]) | relative viability EC50 (Calu-3 [7]) | relative viability EC50 (HepG2 [8]) | relative viability EC50 (U2OS [9]) | relative viability EC50 (Vero E6 [10]) | drug sensitivity score (Caco-2 [11]) | drug sensitivity score (Calu-3 [12]) | drug sensitivity score (HepG2 [13]) | drug sensitivity score (U2OS [14]) | drug sensitivity score (Vero E6 [15])
1 | NCCCNCCCCNCCCN [spermine] | 90.2% | 124% | 93.5% | 98% | 96.7% | 99.2% | 101% | 81.9% | 99.2% | 104% | 93.6% | 98.4% | 104% | 93.1% | 94.3% | 96.5% | 96.3% | 96.1% | 96.8% | 103% | 95.3% | 94.1% | 95.8% | 98.6% | 106% | > 10 µM | > 10 µM | > 10 µM | > 10 µM | > 10 µM | 0 | 0 | 0 | 0 | 0
2 | CC(Cc1ccccc1)(NC(=O)CN)c1ccccc1 (stereo unspecified) [remacemide] | 99.6% | 92.8% | 100% | 91.5% | 102% | 102% | 93.6% | 92.5% | 98.6% | 90.8% | 99.4% | 96.1% | 100% | 94.3% | 104% | 98.6% | 94.7% | 99.6% | 93.6% | 94% | 99.7% | 101% | 102% | 96.2% | 99.3% | > 10 µM | > 10 µM | > 10 µM | > 10 µM | > 10 µM | 0 | 0 | 0 | 0 | 0
3 | O=C(Nc1ccc(S(=O)(=O)Nc2ccccc2Cl)c(Cl)c1)c1ccccn1 | 95.7% | 88.6% | 104% | 101% | 89.8% | 108% | 91.9% | 89.8% | 87.3% | 98.2% | 99.3% | 99.8% | 91.4% | 101% | 103% | 94.8% | 93.7% | 103% | 97.8% | 98.6% | 91.6% | 96.7% | 93.6% | 101% | 105% | > 10 µM | > 10 µM | > 10 µM | > 10 µM | > 10 µM | 0 | 1.8 | 0 | 0 | 0
4 | CO[C@H]1CC=C2CCN3CCC4=C(CC(=O)OC4)[C@]23C1 [NSC-9965] | 100% | 99.6% | 101% | 105% | 108% | 101% | 102% | 94.3% | 101% | 111% | 99.9% | 95% | 100% | 100% | 104% | 101% | 105% | 98.2% | 106% | 108% | 92.5% | 95.8% | 95% | 91.6% | 105% | > 10 µM | > 10 µM | > 10 µM | > 10 µM | > 10 µM | 0 | 0 | 0 | 0 | 0
5 | COc1cc2nc(N3CCN(C(=O)c4ccco4)CC3)nc(N)c2cc1OC [prazosin] | 94.4% | 91.2% | 98.4% | 96% | 92.5% | 105% | 102% | 103% | 97.4% | 99.1% | 89.9% | 93.5% | 86.2% | 91.9% | 97.6% | 98.2% | 97.8% | 99.5% | 102% | 101% | 102% | 105% | 101% | 99.3% | 118% | > 10 µM | > 10 µM | > 10 µM | > 10 µM | > 10 µM | 0 | 0 | 0 | 0 | 0
6 | Fc1ccc(-c2cncc(CN3CCN(c4cccc5c4OCCO5)CC3)c2)cc1 [adoprazine] | 91% | 102% | 98.5% | 109% | 100% | 102% | 105% | 93.8% | 94.2% | 104% | 104% | 90.6% | 92.8% | 106% | 91.7% | 98.2% | 99.7% | 92.1% | 104% | 95.4% | 103% | 98.6% | 93.9% | 98.8% | 105% | > 10 µM | > 10 µM | > 10 µM | > 10 µM | > 10 µM | 0 | 0 | 0 | 0 | 0
7 | COc1ccc2[nH]c(I)c(CCNC(C)=O)c2c1 [2-iodomelatonin] | 98.5% | 106% | 94.6% | 104% | 96.2% | 99.5% | 100% | 103% | 92.7% | 94.8% | 105% | 98.6% | 113% | 96.5% | 105% | 95.3% | 103% | 94.9% | 97.9% | 102% | 94.6% | 93.1% | 92.4% | 94.9% | 108% | > 10 µM | > 10 µM | > 10 µM | > 10 µM | > 10 µM | 0 | 0 | 0 | 0 | 0
8 | COc1ccc(Br)cc1S(=O)(=O)NC(=O)/C=C/c1ccccc1Cc1ccc2ccccc2c1 | 104% | 94% | 99.1% | 97.8% | 87.5% | 94.2% | 106% | 88% | 86.5% | 97.9% | 96.4% | 96.5% | 95.8% | 98.9% | 102% | 99.9% | 98.3% | 94.4% | 98.9% | 95.8% | 96% | 98.6% | 95.3% | 90.8% | 101% | > 10 µM | > 10 µM | > 10 µM | > 10 µM | > 10 µM | 0.1 | 1.7 | 0 | 0 | 0
9 | O=C(NCc1ccc(Oc2ccccc2)cc1)c1nc(-c2cc(Br)c(O)c(Br)c2)no1 [IOWH032] | 104% | 100% | 99.1% | 88.4% | 81% | 101% | 102% | 95.9% | 100% | 88.7% | 91.3% | 102% | 86.7% | 101% | 76.1% | 96.7% | 98.5% | 96.4% | 94.5% | 92.3% | 102% | 106% | 104% | 98.2% | 79.9% | > 10 µM | > 10 µM | > 10 µM | > 10 µM | > 10 µM | 1.4 | 0 | 0.8 | 0 | 0.8
10 | CCC(NC(C)C)C(O)c1ccc(O)c2[nH]c(=O)ccc12 (stereo unspecified) [procaterol] | 84.2% | 107% | 89.9% | 99.6% | 92.8% | 92.1% | 104% | 105% | 110% | 95.9% | 110% | 93.9% | 103% | 97.4% | 95.4% | 101% | 105% | 96% | 104% | 101% | – | – | – | – | – | > 10 µM | > 10 µM | > 10 µM | > 10 µM | – | 0 | 0 | 0 | 0 | –
11 | O=C(O)c1ccc(OCCn2ccnc2)cc1 [dazoxiben] | 108% | 92.7% | 114% | 98.2% | 101% | 101% | 97.7% | 103% | 102% | 97.7% | 104% | 103% | 84.5% | 102% | 89.8% | 99.8% | 96.5% | 103% | 91.4% | 103% | 96.3% | 101% | 96.9% | 103% | 110% | > 10 µM | > 10 µM | > 10 µM | > 10 µM | > 10 µM | 0 | 0 | 0 | 0 | 0
12 | COc1ccc(CN2C(=O)C(=O)c3cc(OC(F)(F)F)ccc32)cc1 | 90.2% | 100% | 89.8% | 85.5% | 38.8% | 98.3% | 96.7% | 110% | 83% | 41.7% | 97.7% | 108% | 109% | 103% | 41.8% | 99% | 99.7% | 92.8% | 25.8% | 13.4% | 107% | 107% | 103% | 86% | 28.8% | 1.66 µM | 1.43 µM | 3.43 µM | 0.374 µM | 1.75 µM | 5.4 | 5.7 | 2.9 | 14.6 | 6.2
13 | CNC(=O)Nc1ccc(-c2nc(N3CC4CCC(C3)O4)c3cnn(C4CCC5(CC4)OCCO5)c3n2)cc1 | 111% | 85.1% | 50.6% | 32.3% | 33.1% | 94.2% | 67.2% | 36.7% | 28% | 30.7% | 98.6% | 97.6% | 47.1% | 31.2% | 20.8% | – | – | – | – | – | 94.1% | 93% | 70.1% | 43.8% | 36.4% | 0.0381 µM | 0.0122 µM | 0.0648 µM | – | 0.109 µM | 19.5 | 25.1 | 20.8 | – | 14.1
14 | CCN(C)C(=O)Oc1cccc([C@H](C)N(C)C)c1 [rivastigmine] | 109% | 95.5% | 104% | 96.7% | 95.8% | 93.5% | 95% | 101% | 98.3% | 94.4% | 113% | 102% | 98% | 106% | 98.2% | 95.8% | 99.2% | 99.9% | 98.7% | 103% | 101% | 106% | 103% | 106% | 97.6% | > 10 µM | > 10 µM | > 10 µM | > 10 µM | > 10 µM | 0 | 0 | 0 | 0 | 0
